Assay results: US20040018500A1, “Methods and systems for analyzing complex biological systems” (priority 2001, published 2004)

Experiments:
[1] = test system: Saccharomyces cerevisiae wild type strain BY4743; experiment: AF1 metabolite analysis (GC-MS, LC-MS) of yeast treated with antifungal drugs; format: cell-based
[2] = test system: Saccharomyces cerevisiae wild type strain BY4743; experiment: AF1 combined gene expression and metabolite data mapped to KEGG reactions and pathways; format: cell-based
Excerpt: In AF1, two different technologies were utilized: gene expression analysis (for examination of mRNA expression) and metabolite analysis. […] As noted previously, existing metabolic databases may be helpful in practicing the methods and systems of the present invention, but many databases include limitations that make their use in data analysis and pathway mapping less than straightforward. […] This caveat to KEGG makes it difficult to pinpoint the correct pathway when attempting to link a gene to a specific pathway. […] The pathway score indicates how meaningful the mapping is, or how likely it is to be correctly indicative of the pathway involved in the perturbation under examination. The method provides a pathway score based on perturbation levels of genes and/or compounds and the information content of each gene and/or compound in the pathway, i.e., a pathway score indicates the extent to which other pathways are mapped to a gene/compound. For example, imagine that two genes are perturbed in a particular experiment. One gene maps to only one pathway, giving a high degree of probability that the perturbed pathway is the one identified in the mapping. The second gene maps to three pathways. In the later example, there is only one-third the probability that the pathway identified in the mapping is the one perturbed. The present invention provides a method for calculating the pathway scores, so that more weight is given to a score of a gene or compound that maps to only one pathway than to a score of a gene or compound that maps to multiple pathways. […] Where n=the total number of genes in the pathway; ipath—count=the number of pathways containing a gene; and j=the number of genes in the pathway that are perturbed. Another factor to be considered when weighting a pathway score is the degree of perturbation. Degree of perturbation can be calculated, for example, based on a number of standard deviations from a norm, and included in an equation such as the one shown above, so that not only the number of pathways is taken into account, but also accounts for the amount of gene transcript or compound present as compared to a control. Compounds were also linked to pathways using the KEGG database. […] Of the 676 compounds under consideration, 77 were detected in the AF1 samples. […] The multiple mapping feature of KEGG makes it difficult to pinpoint the correct pathway when trying to link a compound to a specific pathway. […] A pathway score calculation is applied to the compounds to account for both information content (number of pathways a compound maps to) and perturbation level. The data were then combined to determine the number of reactions showing an enzyme and at least one compound perturbed, and to determine the number of pathways having at least one enzyme and one perturbed compound perturbed. The results of the analysis are represented in Tables 16 and 17, and were difficult to interpret, illustrating that the ability to draw conclusions from compound mapping to pathways is limited when absent additional data.

OC(Cn1cncn1)(Cn1cncn1)c1ccc(F)cc1F [Fluconazole]
Fold Change of alanine ([1]; GC): 0.3084 | Fold Change of asparagine ([1]; GC): 0.3999 | Fold Change of aspartic acid ([1]; GC): 0.4337 | Fold Change of campesterol ([1]; GC): 0 | Fold Change of desmosterol ([1]; GC): 0 | Fold Change of disaccaride1 ([1]; GC): 0.3883 | Fold Change of disaccaride2 ([1]; GC): 0.1517 | Fold Change of disaccaride3 ([1]; GC): 0.5803 | Fold Change of ergosterol ([1]; GC): 0.948 | Fold Change of fucosterol ([1]; GC): 6.665 | Fold Change of glutamine ([1]; GC): 0.5242 | Fold Change of glycanopyrose ([1]; GC): 1.202 | Fold Change of glycerol ([1]; GC): 0.2187 | Fold Change of glycine ([1]; GC): −0.1037 | Fold Change of hexadecanoic acid ([1]; GC): 0.1343 | Fold Change of iso citric acid ([1]; GC): 0.3923 | Fold Change of isoleucine ([1]; GC): 0.391 | Fold Change of lanosterol ([1]; GC): 8.462 | Fold Change of leucine ([1]; GC): 0.3387 | Fold Change of lysine ([1]; GC): 0.3412 | Fold Change of malic acid ([1]; GC): 0.3975 | Fold Change of mevalonic acid lactone ([1]; GC): 0.2333 | Fold Change of octadecanoic acid ([1]; GC): 0.082 | Fold Change of oleic acid ([1]; GC): −0.3073 | Fold Change of ornithine2 ([1]; GC): 0.4473 | Fold Change of ornithine3 ([1]; GC): 0.2647 | Fold Change of palmiteliadic acid ([1]; GC): −0.08867 | Fold Change of phenylalanine ([1]; GC): 0.2774 | Fold Change of phosphate ([1]; GC): −0.508 | Fold Change of pyrimidine ([1]; GC): 0.2457 | Fold Change of abscisic acid ([1]; LC): 0 | Fold Change of adenosine ([1]; LC): 0 | Fold Change of glutamine/lysine ([1]; LC): 0.2242 | Fold Change of guanosine ([1]; LC): −0.9981 | Fold Change of 2-ketobutyric acid ([1]; nLC): −0.9992 | Fold Change of 2-ketoglutaric ([1]; nLC): −0.9995 | Fold Change of 3-indolylacetonitri ([1]; nLC): −0.9998 | Fold Change of 4-methylcatechol ([1]; nLC): 0 | Fold Change of 4aminobutyrate/dimg ([1]; nLC): 0.1384 | Fold Change of 5hydroxyLtryptophan ([1]; nLC): 0 | Fold Change of 6-benzylaminopurine ([1]; nLC): 0 | Fold Change of DLaminoadipic acid ([1]; nLC): 0.443 | Fold Change of NacetylDglucosamine ([1]; nLC): 0 | Fold Change of NacetylLglutamate ([1]; nLC): 0.1369 | Fold Change of NacetylLornithine ([1]; nLC): 0 | Fold Change of abscisic acid ([1]; nLC): 0 | Fold Change of aconitic acid ([1]; nLC): 0.6483 | Fold Change of adenine ([1]; nLC): 0 | Fold Change of adenosine ([1]; nLC): 0 | Fold Change of alanine ([1]; nLC): 0.399 | Fold Change of allantoic acid ([1]; nLC): 0.2392 | Fold Change of allantoin ([1]; nLC): 0.3942 | Fold Change of anthranilic acid ([1]; nLC): 0 | Fold Change of arginine ([1]; nLC): 0.6484 | Fold Change of argininosuccinate ([1]; nLC): 0 | Fold Change of asparagine ([1]; nLC): 0.3545 | Fold Change of aspartic ([1]; nLC): 0.4993 | Fold Change of benzoic acid ([1]; nLC): 0 | Fold Change of biotin ([1]; nLC): 0.3455 | Fold Change of caffeic acid ([1]; nLC): −0.4711 | Fold Change of catechol ([1]; nLC): 0 | Fold Change of cinnamic acid ([1]; nLC): 0 | Fold Change of citricanoic/itaconi ([1]; nLC): 0 | Fold Change of citrulline ([1]; nLC): 0 | Fold Change of coumaric acid ([1]; nLC): 0 | Fold Change of cytidine ([1]; nLC): −0.7969 | Fold Change of cytosine ([1]; nLC): 0 | Fold Change of decanoic acid ([1]; nLC): 0.1846 | Fold Change of diaminopimelic acid ([1]; nLC): 0 | Fold Change of dihydrofolic acid ([1]; nLC): 0 | Fold Change of estrone ([1]; nLC): 0 | Fold Change of farnesol ([1]; nLC): 0 | Fold Change of folic acid ([1]; nLC): 0 | Fold Change of fumaric/3m2oxobutan ([1]; nLC): 0.6009 | Fold Change of gallic acid ([1]; nLC): 0.5071 | Fold Change of gibberellic ([1]; nLC): 0 | Fold Change of giutamine/lysine ([1]; nLC): 0.3309 | Fold Change of glucosamine6PO4 ([1]; nLC): −0.9951 | Fold Change of glutamic/acetylseri ([1]; nLC): 0.3842 | Fold Change of guanine ([1]; nLC): 0 | Fold Change of guanosine ([1]; nLC): −0.993 | Fold Change of histidine ([1]; nLC): 0 | Fold Change of homogentisic/uric ([1]; nLC): 0 | Fold Change of hydrocortisone ([1]; nLC): 0 | Fold Change of indole3pyruvic acid ([1]; nLC): 0 | Fold Change of inostol/glucos/sorb ([1]; nLC): −0.4744 | Fold Change of isocitric/citric/qu ([1]; nLC): 1.457 | Fold Change of jasmonic acid ([1]; nLC): 0 | Fold Change of kinetin ([1]; nLC): 0 | Fold Change of lactic acid ([1]; nLC): −0.0439 | Fold Change of lauric acid ([1]; nLC): 0.3906 | Fold Change of leucine/isoleucine/ ([1]; nLC): 0.3306 | Fold Change of luteolin ([1]; nLC): 0 | Fold Change of malic acid ([1]; nLC): 0.4366 | Fold Change of malonic acid ([1]; nLC): 0 | Fold Change of menthol* ([1]; nLC): 0.04758 | Fold Change of methionine ([1]; nLC): 0 | Fold Change of nicotinic acid ([1]; nLC): 2.443 | Fold Change of nopaline ([1]; nLC): 0.3432 | Fold Change of oleic acid ([1]; nLC): −0.01684 | Fold Change of ornithine ([1]; nLC): 0.3508 | Fold Change of orotic acid ([1]; nLC): 0 | Fold Change of palmitic acid ([1]; nLC): −0.0233 | Fold Change of phenylalanine ([1]; nLC): 0.1527 | Fold Change of phenylpyruvic acid ([1]; nLC): 0 | Fold Change of phosphoenolpyruvate ([1]; nLC): 0 | Fold Change of pinitol ([1]; nLC): 0 | Fold Change of pipecolic acid ([1]; nLC): 0.2901 | Fold Change of porphobilinogen ([1]; nLC): 0 | Fold Change of proline ([1]; nLC): 0.4164 | Fold Change of pyridoxine ([1]; nLC): −0.04201 | Fold Change of 4-aminobenzoic acid ([1]; pLC): 0 | Fold Change of 4-methylcatechol ([1]; pLC): 0 | Fold Change of 4ambutyrate/dimglyc ([1]; pLC): −0.4383 | Fold Change of 5hydroxyLtryptophan ([1]; pLC): 0 | Fold Change of 6benzylaminopurine ([1]; pLC): 0 | Fold Change of DL-aminoadipic acid ([1]; pLC): 0.1155 | Fold Change of NacetylDglucosamine ([1]; pLC): 0 | Fold Change of NacetylLglutamate ([1]; pLC): 0 | Fold Change of NacetylLornithine ([1]; pLC): 0.1584 | Fold Change of adenine ([1]; pLC): −0.09439 | Fold Change of alanine/sarcosine ([1]; pLC): 0.1269 | Fold Change of allantoic acid ([1]; pLC): 0 | Fold Change of anthranilic acid ([1]; pLC): 0 | Fold Change of arginine ([1]; pLC): 0.1179 | Fold Change of argininosuccinate ([1]; pLC): 0 | Fold Change of asparagine ([1]; pLC): 0.3192 | Fold Change of aspartic acid ([1]; pLC): 0.214 | Fold Change of biotin ([1]; pLC): 0 | Fold Change of caffeine ([1]; pLC): 0 | Fold Change of citric acid TME ([1]; pLC): 0 | Fold Change of citrulline ([1]; pLC): 0.08252 | Fold Change of cytidine ([1]; pLC): 0 | Fold Change of cytosine ([1]; pLC): 0 | Fold Change of diaminopimelic acid ([1]; pLC): 0 | Fold Change of dihydrofolic acid ([1]; pLC): 0 | Fold Change of dipicolinic acid ([1]; pLC): 0 | Fold Change of folic acid ([1]; pLC): 0 | Fold Change of glucosamine ([1]; pLC): 0 | Fold Change of glucosamine6PO4 ([1]; pLC): 0 | Fold Change of glutamate ([1]; pLC): −0.06179 | Fold Change of glutathione ([1]; pLC): −0.05832 | Fold Change of histidine ([1]; pLC): 0 | Fold Change of hydrocortisone ([1]; pLC): 0 | Fold Change of hypoxanthine ([1]; pLC): 0.1298 | Fold Change of itaconic acid dimes ([1]; pLC): 0 | Fold Change of kinetin ([1]; pLC): 0 | Fold Change of leucine/isoleucine/ ([1]; pLC): 0.1638 | Fold Change of luteolin ([1]; pLC): 0 | Fold Change of mannitol ([1]; pLC): 0.152 | Fold Change of methionine ([1]; pLC): −0.2906 | Fold Change of mevalonic lactone ([1]; pLC): −0.5175 | Fold Change of niacinamide ([1]; pLC): 0 | Fold Change of nicotinic acid ([1]; pLC): −0.7982 | Fold Change of nopaline ([1]; pLC): 0 | Fold Change of ornithine ([1]; pLC): 0.4775 | Fold Change of phenylalanine ([1]; pLC): −0.1809 | Fold Change of phosphoenolpyruvate ([1]; pLC): 0 | Fold Change of pipecolic acid ([1]; pLC): 0.2583 | Fold Change of progesterone ([1]; pLC): 0 | Fold Change of proline ([1]; pLC): 0.2075 | Fold Change of pyridoxine ([1]; pLC): −0.3831 | Number of Reactions Having an Enzyme and at Least One Compound Perturbed [2]: 2
